Measured values taken from ChEMBL document CHEMBL4765450, “The components and activities analysis of a novel anticoagulant candidate dHG-5” (Eur J Med Chem, 2020).
Active and inactive are the calls of the source. The calls are words filed in the database; no cut-off is given here.

Tests used:
[1] = biological target: Prothrombin (Homo sapiens) (UniProt P00734); assay: Inhibition of factor 2a (unknown origin) at IC50 preincubated for 1 min followed by chromogenic substrate addition and measured for 2 mins in presence of AT-III; conditions: time 3.0 min
Rattus norvegicus = assay: Antithrombotic activity in thromboplastin and stasis-induced Sprague-Dawley rat deep venous thrombosis model assessed as reduction in venous thrombosis at 2.7 mg/kg, sc administered 1 hr prior to thromboplastin addition for 20 secs followed by establishment of stasis for 20 mins; format: functional; set-up: scale not given: the % may be the effect or the level left; conditions: time 80.33 min, 1.339 h
[2] = Tmax in Kunming mouse at 5.11 mg/kg, sc; format: ADME, organism-based; conditions: in vivo
Mus musculus [3] = assay: Anticoagulation activity in Kunming mouse assessed as APTT-prolonging effect by measuring time for maximum effect at 1.7 mg/kg, sc measured after 0.5 to 8 hrs by APTT reagent based assay; format: functional; conditions: time 0.5-8 hrs
[4] = MRT (0 to 8 hrs) in Kunming mouse at 15.3 mg/kg, sc; format: ADME, organism-based; conditions: in vivo
[5] = Half life in Kunming mouse at 5.11 mg/kg, sc; format: ADME, organism-based; conditions: in vivo
[6] = biological target: T1, Coagulation factor XII (Homo sapiens) (UniProt P00748); assay: Inhibition of factor 12a (unknown origin) at IC50 using kallikrein chromogenic substrate preincubated for 1 min followed by chromogenic substrate addition and measured for 2 mins; conditions: time 3.0 min
T1 sequence (whole entry): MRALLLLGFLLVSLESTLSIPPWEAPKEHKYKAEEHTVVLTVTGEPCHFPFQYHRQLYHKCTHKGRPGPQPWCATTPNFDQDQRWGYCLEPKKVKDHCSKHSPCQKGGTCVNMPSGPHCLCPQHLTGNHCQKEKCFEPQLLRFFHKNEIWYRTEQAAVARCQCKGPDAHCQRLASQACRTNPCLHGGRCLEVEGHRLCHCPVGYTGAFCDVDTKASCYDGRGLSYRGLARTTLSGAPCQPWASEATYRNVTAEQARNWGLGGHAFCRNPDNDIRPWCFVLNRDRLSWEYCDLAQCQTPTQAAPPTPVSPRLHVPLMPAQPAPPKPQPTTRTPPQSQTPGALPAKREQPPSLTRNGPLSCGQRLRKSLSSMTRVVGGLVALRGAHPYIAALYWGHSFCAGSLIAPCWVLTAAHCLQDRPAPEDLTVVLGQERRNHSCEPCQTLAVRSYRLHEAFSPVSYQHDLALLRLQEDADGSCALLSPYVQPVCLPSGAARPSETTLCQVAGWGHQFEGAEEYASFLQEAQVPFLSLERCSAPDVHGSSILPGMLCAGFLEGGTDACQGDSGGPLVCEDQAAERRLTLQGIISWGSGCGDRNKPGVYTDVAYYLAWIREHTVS

[7] = MRT (0 to infinity) in Kunming mouse at 15.3 mg/kg, sc; format: ADME, organism-based; conditions: in vivo
[8] = biological target: T2, Coagulation factor VII (Homo sapiens) (UniProt P08709); assay: Inhibition of factor 7a (unknown origin) at IC50 using pefachrome factor VIIa as substrate preincubated for 1 min followed by chromogenic substrate addition and measured for 2 mins in presence of AT-III; conditions: time 3.0 min
T2 sequence (whole entry): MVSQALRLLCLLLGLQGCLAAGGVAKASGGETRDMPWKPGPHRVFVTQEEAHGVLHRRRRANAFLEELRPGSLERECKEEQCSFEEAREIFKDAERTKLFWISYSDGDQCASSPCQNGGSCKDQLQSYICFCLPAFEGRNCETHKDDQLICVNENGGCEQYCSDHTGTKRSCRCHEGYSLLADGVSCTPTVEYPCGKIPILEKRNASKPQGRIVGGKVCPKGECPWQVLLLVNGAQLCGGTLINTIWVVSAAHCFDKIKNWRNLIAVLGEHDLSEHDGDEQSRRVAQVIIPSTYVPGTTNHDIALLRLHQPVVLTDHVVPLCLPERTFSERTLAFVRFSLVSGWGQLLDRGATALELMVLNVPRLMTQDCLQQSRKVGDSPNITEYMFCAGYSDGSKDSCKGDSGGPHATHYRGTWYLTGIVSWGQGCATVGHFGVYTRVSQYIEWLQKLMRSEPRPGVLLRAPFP

Plasma [9] = assay: Induction of platelet aggregation in human platelet rich plasma at plasma peak concentration of 10 times anti-thrombosis ED50 measured after 10 mins by light transmission aggregometry
[10] = Tmax in Kunming mouse at 1.7 mg/kg, sc; format: ADME, organism-based; conditions: in vivo
[11] = MRT (0 to infinity) in Kunming mouse at 1.7 mg/kg, sc; format: ADME, organism-based; conditions: in vivo
[12] = Half life in Kunming mouse at 1.7 mg/kg, sc; format: ADME, organism-based; conditions: in vivo
Plasma [13] = assay: Anticoagulation activity in HCII-deficient human plasma preincubated for 2 mins followed by APTT reagent and measured after 3 mins by coagulometric method; format: functional, cell-free; conditions: time 5.0 min
[14] = MRT (0 to infinity) in Kunming mouse at 5.11 mg/kg, sc; format: ADME, organism-based; conditions: in vivo
[15] = biological target: Prothrombin (Homo sapiens) (UniProt P00734); assay: Inhibition of factor 2a (unknown origin) at IC50 preincubated for 1 min followed by chromogenic substrate addition and measured for 2 mins; conditions: time 3.0 min
[16] = biological target: Coagulation factor XI (Homo sapiens) (UniProt P03951); assay: Inhibition of factor 11a (unknown origin) at IC50 using S-2366 as substrate preincubated for 1 min followed by chromogenic substrate addition and measured for 2 mins in presence of AT-III; conditions: time 3.0 min
Coagulation factor IX = Coagulation factor IX (Homo sapiens, UniProt P00740); assay: Inhibition of factor 9a (unknown origin) binding to immobilized biotinylated oHG-11 by biolayer interferometry
[17] = biological target: Coagulation factor XI (Homo sapiens) (UniProt P03951); assay: Inhibition of factor 11a (unknown origin) at IC90 using S-2366 as substrate preincubated for 1 min followed by chromogenic substrate addition and measured for 2 mins in presence of AT-III; conditions: time 3.0 min
[18] = biological target: T2, Coagulation factor VII (Homo sapiens); assay: Inhibition of factor 7a (unknown origin) at IC50 using pefachrome factor VIIa as substrate preincubated for 1 min followed by chromogenic substrate addition and measured for 2 mins; conditions: time 3.0 min
[19] = biological target: Prothrombin (Homo sapiens) (UniProt P00734); assay: Inhibition of factor 2a (unknown origin) at IC90 preincubated for 1 min followed by chromogenic substrate addition and measured for 2 mins in presence of AT-III; conditions: time 3.0 min
[20] = biological target: Coagulation factor X (Homo sapiens) (UniProt P00742); assay: Inhibition of factor 10a (unknown origin) at IC50 preincubated for 1 min followed by chromogenic substrate addition and measured for 2 mins in presence of AT-III; conditions: time 3.0 min
[21] = biological target: Coagulation factor X (Homo sapiens) (UniProt P00742); assay: Inhibition of factor 10a (unknown origin) at IC90 preincubated for 1 min followed by chromogenic substrate addition and measured for 2 mins in presence of AT-III relative to control; conditions: time 3.0 min
[22] = Toxicity in Kunming mouse tail bleeding model assessed as blood loss at 73.01 mg/kg, sc measured after 1 hr by UV-vis spectrophotometry; format: organism-based; conditions: in vivo
Mus musculus [23] = assay: Anticoagulation activity in Kunming mouse assessed as APTT-prolonging effect by measuring time for maximum effect at 5.11 mg/kg, sc measured after 0.5 to 8 hrs by APTT reagent based assay; format: functional; conditions: time 0.5-8 hrs
Plasma [24] = assay: Anticoagulation activity in human plasma assessed as drug level causing 20 times doubling of APTT preincubated for 2 mins followed by APTT reagent and measured after 3 mins by coagulometric method; format: functional; conditions: time 5 min
[25] = MRT (0 to 8 hrs) in Kunming mouse at 5.11 mg/kg, sc; format: ADME, organism-based; conditions: in vivo

Coagulation factor X (Homo sapiens), sequence (P00742 41-179 limits assumed): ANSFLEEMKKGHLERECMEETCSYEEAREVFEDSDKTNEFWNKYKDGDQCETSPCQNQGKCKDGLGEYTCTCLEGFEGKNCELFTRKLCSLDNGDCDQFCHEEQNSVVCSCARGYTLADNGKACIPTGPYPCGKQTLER
Coagulation factor X (Homo sapiens), sequence (P00742 235-488 limits assumed): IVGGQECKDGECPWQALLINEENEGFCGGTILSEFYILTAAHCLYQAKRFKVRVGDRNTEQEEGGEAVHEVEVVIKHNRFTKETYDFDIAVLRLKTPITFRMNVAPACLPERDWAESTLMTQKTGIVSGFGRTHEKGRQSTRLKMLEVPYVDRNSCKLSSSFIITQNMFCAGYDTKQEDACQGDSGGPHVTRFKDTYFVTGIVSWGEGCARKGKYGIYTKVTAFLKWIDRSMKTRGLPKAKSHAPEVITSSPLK
Coagulation factor XI (Homo sapiens), sequence (P03951 19-387 limits assumed): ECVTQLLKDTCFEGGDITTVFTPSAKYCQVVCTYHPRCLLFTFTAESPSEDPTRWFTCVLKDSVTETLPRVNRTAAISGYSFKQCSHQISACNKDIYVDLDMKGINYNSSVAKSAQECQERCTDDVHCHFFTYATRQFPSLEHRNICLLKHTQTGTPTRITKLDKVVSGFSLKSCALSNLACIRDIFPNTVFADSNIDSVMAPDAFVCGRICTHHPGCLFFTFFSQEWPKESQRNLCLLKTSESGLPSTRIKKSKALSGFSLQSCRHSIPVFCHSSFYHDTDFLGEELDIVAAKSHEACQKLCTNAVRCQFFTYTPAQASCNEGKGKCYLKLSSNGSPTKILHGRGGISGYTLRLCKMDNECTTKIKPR
Coagulation factor XI (Homo sapiens), sequence (P03951 388-625 limits assumed): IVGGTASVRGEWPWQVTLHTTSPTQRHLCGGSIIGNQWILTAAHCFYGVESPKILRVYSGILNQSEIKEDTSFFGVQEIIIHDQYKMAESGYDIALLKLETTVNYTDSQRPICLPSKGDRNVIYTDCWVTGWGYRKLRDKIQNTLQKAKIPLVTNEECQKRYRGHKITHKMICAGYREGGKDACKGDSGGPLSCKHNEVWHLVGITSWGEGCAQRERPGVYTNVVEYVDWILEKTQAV
Coagulation factor IX, sequence (P00740 47-191 limits assumed): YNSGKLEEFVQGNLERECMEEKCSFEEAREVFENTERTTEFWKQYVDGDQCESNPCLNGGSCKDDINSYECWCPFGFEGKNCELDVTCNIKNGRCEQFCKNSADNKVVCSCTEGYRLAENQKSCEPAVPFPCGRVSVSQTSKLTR
Coagulation factor IX, sequence (P00740 227-461 limits assumed): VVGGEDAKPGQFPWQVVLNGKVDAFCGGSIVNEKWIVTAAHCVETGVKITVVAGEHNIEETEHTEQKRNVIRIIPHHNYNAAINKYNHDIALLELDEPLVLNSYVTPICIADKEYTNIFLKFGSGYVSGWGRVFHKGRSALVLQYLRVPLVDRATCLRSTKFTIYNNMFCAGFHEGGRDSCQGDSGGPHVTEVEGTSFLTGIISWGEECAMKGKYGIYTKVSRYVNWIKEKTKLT

## CC(=O)N[C@H]1[C@H](O[C@H]2[C@H](O[C@@H]3O[C@@H](C)[C@@H](OS(=O)(=O)[O-])[C@@H](O)[C@@H]3OS(=O)(=O)O)[C@@H](O)[C@H](O[C@H]3[C@@H](NC(C)=O)[C@H](O[C@H]4[C@H](O[C@@H]5O[C@@H](C)[C@@H](OS(=O)(=O)[O-])[C@@H](O)[C@@H]5OS(=O)(=O)O)[C@@H](O)[C@H](O[C@H]5[C@@H](NC(C)=O)[C@H](O[C@H]6[C@H](O[C@@H]7O[C@@H](C)[C@@H](OS(=O)(=O)[O-])[C@@H](O)[C@@H]7OS(=O)(=O)O)[C@@H](O)[C@H](O[C@H]7[C@@H](NC(C)=O)[C@H](O[C@H]8[C@H](O[C@@H]9O[C@@H](C)[C@@H](OS(=O)(=O)[O-])[C@@H](O)[C@@H]9OS(=O)(=O)O)[C@@H](O)[C@H](O[C@H]9[C@@H](NC(C)=O)[C@H](O[C@@H]([C@H](O[C@@H]%10O[C@@H](C)[C@@H](OS(=O)(=O)[O-])[C@@H](O)[C@@H]%10OS(=O)(=O)O)[C@@H](O)CO)[C@H](O)C(=O)[O-])O[C@H](COS(=O)(=O)[O-])[C@@H]9OS(=O)(=O)[O-])O[C@@H]8C(=O)[O-])O[C@H](COS(=O)(=O)[O-])[C@@H]7OS(=O)(=O)[O-])O[C@@H]6C(=O)[O-])O[C@H](COS(=O)(=O)[O-])[C@@H]5OS(=O)(=O)[O-])O[C@@H]4C(=O)[O-])O[C@H](COS(=O)(=O)[O-])[C@@H]3OS(=O)(=O)[O-])O[C@@H]2C(=O)[O-])O[C@H](COS(=O)(=O)[O-])[C@H](OS(=O)(=O)[O-])[C@@H]1O[C@@H]1OC(C(=O)[O-])=C[C@H](O[C@@H]2O[C@@H](C)[C@@H](OS(=O)(=O)[O-])[C@@H](O)[C@@H]2OS(=O)(=O)O)[C@H]1O.[Na+].[Na+].[Na+].[Na+].[Na+].[Na+].[Na+].[Na+].[Na+].[Na+].[Na+].[Na+].[Na+].[Na+].[Na+].[Na+].[Na+].[Na+].[Na+].[Na+].[Na+].[Na+]
[1]
  inhibition: inactive
Rattus norvegicus
  Activity: 60.7%
[2]
  Tmax: 45 min
Mus musculus [3]
  Emax: 4.39 s
[4]
  MRT last: 1.66 h
[5]
  half-life: 33.8 min
[6]
  inhibition: inactive
[7]
  MRT inf: 1.71 h
[8]
  inhibition: inactive
Plasma [9]
  Activity: Not Active
[10]
  Tmax: 1.17 h
[11]
  MRT inf: 2.21 h
[12]
  half-life: 65.4 min
Plasma [13]
  Activity: Active
[14]
  MRT inf: 1.52 h
[15]
  inhibition: inactive
[16]
  inhibition: inactive
Coagulation factor IX
  IC50: 430 nM
[17]
  inhibition: Active
[18]
  inhibition (active/not active): inactive
[19]
  inhibition: Active
[20]
  inhibition: inactive
[21]
  inhibition: inactive
[22]
  Activity: 139 µL
Mus musculus [23]
  Emax: 7.68 s
Plasma [24]
  EC: 1.79 µM
[25]
  MRT last: 1.52 h
